The results in this text go back to patent publication US20180153830A1, “SELECTIVE INHIBITORS OF UNDIFFERENTIATED CELLS” (Yissum Research Development Company of the Hebrew …, priority 2012, published 2018).

Common to all, as to format: cell-based
In assay [1] the test system is ES-derived mesenchymal stem cells. Briefly: CellTiter-Glo counter-screen, mesenchymal stem cells. The note with it: Homo sapiens, at 20 μM (table title). For orientation: ATP-based viability assays read luminescence as a measure of living cells.
Assay [2] deals with CSES2 human embryonic stem cells. Briefly: CellTiter-Glo luminescent cell viability screen, CSES2. The following applies: for inhibition at 20 µM: pluripotent stem cells. The method, then: 5,000 CSES2 cells were plated in 50 μl per well of mTeSR1 medium into black 384-well clear-bottom plates (Falcon BD) pre-coated with Matrigel™ using WellMate cell dispenser (Matrix, Hudson, N.H.). 24 hours after plating, medium was replaced with 25 μl of fresh medium and 25 μl of 40 μM compound medium solutions in 1% DMSO from the intermediate compound dilution plates. The plates were incubated at 37° C., in a 5% CO2 atmosphere, for the entire duration of the screen, apart from the time required for liquid handling. […] 50 μl of CellTiter-Glo® reagent was added to each well of the assay plates and fully mixed. After incubation at room temperature for 15 minutes, 25 μl of liquid was transferred from each well into a white opaque-bottom 384-well plate (PerkinElmer), and luminescence was measured using an EnVision® plate reader (PerkinElmer). 16 neutral control wells (0.5% DMSO) and 8 positive control wells (5 μM amsacrine hydrochloride were used to normalize the compound effect. All liquid transfer steps were handled with a Biomek® FXP Laboratory Automation Workstation (Beckman Coulter, Fullerton, Calif.) and Muitidrop Combi liquid dispenser (Thermo Fisher, Waltham, Mass.). An Assay Analyzer (Genedata, Basel, Switzerland) was used for data pattern correction and calculation. The Spotfire software (Spotfire, Somerville, Mass.) was used for data illustration.
The compounds identified as hits from the primary screen were retested at a concentration of 20 μM against three pluripotent stem cell lines (CSES2, H9 and CSES2-SO2/3) for confirmation screens.
(§1) 696 confirmed hits from the confirmation screen were tested for profiling in a panel of 13 different cell types, using the same screening protocol described above (except in the case of embryonic stem cell-derived neural stem cells (NSCs) and mesenchymal stem cells (MSCs), for which the protocol is described below). As discussed below, compounds were tested either in dose-dependent multiple concentration manner or in single concentration manner. CSES2 and CSES2-SO2/3 cell lines and the early endodermal progenitors derived from this cell line (CSES2-SO2/3-differentiated) were screened at 8 concentrations ranging from 50 μM to 23 nM with 1:3 serial dilution steps. BJ-iPS28 cell line and the BJ fibroblasts from which it was derived were screened at 6 concentrations ranging from 50 μM to 200 nM with 1:3 serial dilution steps. Cardiomyocytes were screened in one concentration of 20 μM. HeLa and NTERA-2 cell lines were screened in duplicates of 20 μM. Kelly and Huh-7 were screened in triplicates of 20 μM. Hepatocytes were screened in duplicates of 20 μM in the original 96-well plates in which the cells arrived (40,000 cells per well, in 160 μl medium, the volumes of all reagents involved were adjusted accordingly). MSCs and NSCs were screened in duplicates of 12.5 μM.
The raw intensity data for each well were background-corrected by subtraction of the median intensities across all positive control wells on the same plate, and used to calculate the inhibitory effect of each compound per cell line. A Genedata Assay Analyzer and Condoseo were used for data pattern correction, calculation and IC50 curve fitting. A Z′ factor was determined for each plate.

The test system of another assay is BJ-fibroblasts. Nature of the assay: CellTiter-Glo counter-screen, BJ-fibroblasts. The note with it: Homo sapiens; for EC50: 24 hours, differentiated cells. How it is done: The cervical carcinoma cell line HeLa, teratocarcinoma cell line NTERA-2, and immortalized BJ fibroblast cell line, were cultured in DMEM supplemented with 10% FBS, penicillin (50 U/ml) and streptomycin (50 μg/ml).
as §1
(§2) In order to identify highly-selective cytotoxic inhibitors of hPSCs, the 696 cytotoxic inhibitors of hPSCs identified as described in Example 1 were counter-screened as described in the Materials and Methods section against other cell types, representative of all germ layers and developmental stages. Importantly, many of these cell types were differentiated from human ES or iPS cells. The screened cell types included ES-derived neural stem cells (NSCs), ES-derived mesenchymal stem cells (MSCs), ES-derived endodermal progenitor cells, ES-derived hepatocytes, iPS-derived cardiomyocytes, iPS-derived fibroblasts of origin (BJ fibroblasts), and three cancer cell lines: neuroblastoma (Kelly), cervical cancer (HeLa) and hepatocarcinoma (Huh7). The cell types and their relationship to stem cells are depicted schematically in FIG. 14.
In addition, the identified compounds were screened at 6 concentrations using the BJ-fibroblasts from which the iPS line BJ-iPS28 had been derived, and reliable EC50 values were thereby calculated for both the iPS cells and for their somatic cells of origin.

Assay [3] deals with ES-derived neural stem cells. Nature of the assay: CellTiter-Glo counter-screen, neural stem cells. The following applies: Homo sapiens, Neural stem cell.
Assay [4] relates to CSES2-SO2/3 ES-derived endodermal progenitors. Briefly: CellTiter-Glo counter-screen, endodermal progenitors. The note with it: Homo sapiens; for EC50: 24 hours, differentiated cells. The method, then: CSES2-SO2/3 embryonic stem cells were differentiated to endodermal progenitors using an established protocol [Duan et al. Stem Cells 28:674-686 (2010)]. Undifferentiated cells were seeded at a density of 10,000 cells/cm^2 on MatrigelT™-coated plates, with mTeSR1 medium. The next day (day 1), medium was replaced to serum-free RPMI-1640, supplemented with 2 mM glutamine, 100 ng/ml Activin A 60 μg/ml of G418 geneticin sulfate and 0.3 μg/ml of puromycin. From day 3 to day 8, the same medium was also supplemented with 1×B27 supplement (Invitrogen) and 0.5 mM sodium butyrate. The cellular identity of the cells as endodermal progenitors was verified by quantifying the percentage of green SOX17+ cells, and the percentage of CXCR4+ cells, using a Guava® EasyCyte™ Plus flow cytometry system (Millipore). Further validation was obtained by fluorescence-staining of the cells with an antibody against the early endodermal surface marker CXCR4 (CXCR4-PE antibody, 1:25; BD Biosciences). The percentage of CXCR4+ cells was also quantified using the Guava® EasyCyte™ Plus flow cytometry system.
as §1, with “CSES2 and CSES2-SO2/3 cell lines and the early endodermal progenitors derived from this cell line (CSES2-SO2/3-differentiated) were screened at 8 concentrations ranging from 50 μM to 23 nM with 1:3 serial dilution steps.” left out
as §2
The identified compounds were screened at 8 concentrations using both the undifferentiated red cells and the differentiated green cells, and reliable EC50 values were thereby calculated for the genetically identical differentiated and undifferentiated cells.

[5] abbreviates: 24 h, read-out: EC50 CSES2 24 hours.
Where [6] appears, read: 48 h, read-out: EC50 CSES2 48 hours.

Like-named read-outs stand apart in the source and are kept apart here.

Consider `Nc1cc(N)cc(COc2ccc(-c3ccccc3)cc2)c1` [PluriSIn #3], for which the inhibition (commonly the drop in the measured response relative to a control, in per cent) at 12.5 µM in assay [1] amounted to 3.3%; in assay [3] it was 90.4%. The EC50 (as a rule, the concentration at which the effect is half-maximal) in assay [2] (setting [5]) is 2980 nM; in assay [2] (setting [6]), 1320 nM; with BJ-fibroblasts, > 50000 nM; in assay [4] it was > 50000 nM. The inhibition at 20 µM in assay [2] is 98%; in the assay on BJ-fibroblasts it was -25.4%; in assay [4], -9.2%.
On to `Cc1oc2ccccc2c1/C=N/Nc1ccccc1` [PluriSIn #8], for which the results for the inhibition at 12.5 µM in assay [1] and in assay [3] were -33.8% and 15%, respectively. Also, the half-maximal effective concentration (EC50) in assay [2] (setting [5]) is 2300 nM; in assay [2] (setting [6]), 2390 nM; in the assay on BJ-fibroblasts it was > 50000 nM; in assay [4], > 50000 nM. Further, the inhibition at 20 µM was 98.6% in assay [2], -10.3% in the assay on BJ-fibroblasts and 0% in assay [4].
Regarding `Cc1ccc(NNC(=O)C(O)(c2ccccc2)c2cccs2)cc1` (stereo not drawn) [PluriSIn #6, 2-hydroxy-2-(thiophen-2-yl)-2-phenylacetic acid 4-methyl-N′-phenylhydrazide], the inhibition at 12.5 µM in assay [1] is -19.7%; in assay [3], 16.5%. Also, the EC50 is 2550 nM in assay [2] (setting [5]), 1920 nM in assay [2] (setting [6]), > 50000 nM in the assay on BJ-fibroblasts and > 50000 nM in assay [4]. Moreover, the inhibition at 20 µM was 94.8% in assay [2], 15.9% with BJ-fibroblasts and -2.5% in assay [4].
For the compound `O=C(NNc1ccccc1)c1ccncc1` [PluriSIn #1, isonicotinic acid N′-phenylhydrazide], the inhibition at 12.5 µM in assay [1] is -4.9%; in assay [3], 18.2%. Also, the EC50 in assay [2] (setting [5]) is 1540 nM; in assay [2] (setting [6]) it was 1990 nM; in the assay on BJ-fibroblasts, > 50000 nM; in assay [4], > 50000 nM. Moreover, the inhibition at 20 µM in assay [2] was 92.1%; in the assay on BJ-fibroblasts it was -8.8%; in assay [4], 6.5%.
In the case of `CC(=O)Oc1ccc(/C=C/c2ccc3c(c2)CCN3C)cc1` [PluriSIn #7], the inhibition at 12.5 µM in assay [1] was found to be 35.8%; in assay [3] it was 92.8%. Also, the EC50 is 1980 nM in assay [2] (setting [5]), 749 nM in assay [2] (setting [6]), > 50000 nM with BJ-fibroblasts and > 50000 nM in assay [4]. Moreover, the figures for the inhibition at 20 µM (in assay [2]; in the assay with BJ-fibroblasts; in assay [4]) were 104%, -9.7% and 24.8%, respectively.
Regarding `CCCCCC(=O)NNc1ccc(Cl)cc1` [PluriSIn #10], the inhibition at 12.5 µM is 3.9% in assay [1] and 23.7% in assay [3]. The EC50 in assay [2] (setting [5]) is 1670 nM; in assay [2] (setting [6]), 2050 nM; in the assay on BJ-fibroblasts, > 50000 nM; in assay [4], > 50000 nM. In addition, the figures for the inhibition at 20 µM (in assay [2]; with BJ-fibroblasts; in assay [4]) were 95%, -20.1% and 33.8%, respectively.
In the case of `O=C1C=CC=C1/C=C/C(=N\Nc1ccccc1)c1ccccc1` [PluriSIn #13], the inhibition at 12.5 µM in assay [1] was -7.3%; in assay [3] it was 29.7%. Besides, the EC50 is 1540 nM in assay [2] (setting [5]), 1910 nM in assay [2] (setting [6]), > 50000 nM in the assay on BJ-fibroblasts and > 50000 nM in assay [4]. The inhibition at 20 µM is 101% in assay [2], -15.4% in the assay on BJ-fibroblasts and 15.8% in assay [4].
`CCOC(=O)CN1CC(=O)/C(=C\NNc2ccccc2)C1=O` [PluriSIn #11]: the values for the inhibition at 12.5 µM in assay [1] and in assay [3] were 6% and 17.2%, respectively. In addition, the EC50 was 3830 nM in assay [2] (setting [5]), 2580 nM in assay [2] (setting [6]), > 50000 nM with BJ-fibroblasts and > 50000 nM in assay [4]. Further, the results for the inhibition at 20 µM (in assay [2]; with BJ-fibroblasts; in assay [4]) were 98.8%, -19.3% and 4.3%, respectively.
